Assay [1] concerns the target T1, Cysteinyl leukotriene receptor 1 (Cavia porcellus, UniProt Q2NNR5).
T1 sequence (Q2NNR5 whole entry): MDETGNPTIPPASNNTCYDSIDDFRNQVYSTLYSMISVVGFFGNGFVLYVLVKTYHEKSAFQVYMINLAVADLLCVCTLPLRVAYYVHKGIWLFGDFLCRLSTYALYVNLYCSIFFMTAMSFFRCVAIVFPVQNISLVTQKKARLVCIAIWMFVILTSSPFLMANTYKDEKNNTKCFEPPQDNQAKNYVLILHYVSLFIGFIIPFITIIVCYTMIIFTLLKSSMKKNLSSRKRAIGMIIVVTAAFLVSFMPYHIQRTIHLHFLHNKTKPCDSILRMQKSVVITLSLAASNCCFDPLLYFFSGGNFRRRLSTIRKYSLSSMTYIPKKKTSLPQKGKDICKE
Briefly: Inhibition of [3H]LTD4 binding to guinea-pig lung membranes. In kind it is tissue-based, Membrane.

Assay [2] is filed under the species Cavia porcellus. Briefly: Compound was evaluated for its agonist activity on guinea-pig ileum, value expressed as the negative logarithm of the ED50 value. In kind it is functional.
In assay [3] the target is T1, Cysteinyl leukotriene receptor 1. Nature of the assay: Compound was evaluated for its binding affinity on guinea-pig ileum. The assay is classed as tissue-based.
The target of assay [4] is T2, Cysteinyl leukotriene receptor 1 (Cavia porcellus) (UniProt Q2NNR5).
T2 sequence (whole entry): T1 sequence (Q2NNR5 whole entry)
Briefly: Compound was evaluated for its antagonist affinity at 10 (uM) on guinea-pig trachea rings against LTD4 receptor. The assay is classed as functional, tissue-based.

The target in assay [5] is T1, Cysteinyl leukotriene receptor 1. Briefly: (§1) Compound was evaluated for its antagonist affinity at 0.1 uM on guinea-pig trachea rings against LTD4 receptor. The conditions noted are these: read-out: pA2 (converted). The assay is classed as functional, tissue-based.
For assay [6], the species on record is Cavia porcellus. Briefly: spontaneously compound was tested for oral activity against LTD4 in spontaneously-breathing guinea pigs. In kind it is functional. Conditions: read-out: ID50 (the source's name).
Assay [7] concerns the target T2, Cysteinyl leukotriene receptor 1 (Cavia porcellus). The assay is described as §1. In kind it is functional, tissue-based.
For assay [8], the target named is T3, Cysteinyl leukotriene receptor 1 (Homo sapiens) (UniProt Q9Y271).
T3 sequence (whole entry): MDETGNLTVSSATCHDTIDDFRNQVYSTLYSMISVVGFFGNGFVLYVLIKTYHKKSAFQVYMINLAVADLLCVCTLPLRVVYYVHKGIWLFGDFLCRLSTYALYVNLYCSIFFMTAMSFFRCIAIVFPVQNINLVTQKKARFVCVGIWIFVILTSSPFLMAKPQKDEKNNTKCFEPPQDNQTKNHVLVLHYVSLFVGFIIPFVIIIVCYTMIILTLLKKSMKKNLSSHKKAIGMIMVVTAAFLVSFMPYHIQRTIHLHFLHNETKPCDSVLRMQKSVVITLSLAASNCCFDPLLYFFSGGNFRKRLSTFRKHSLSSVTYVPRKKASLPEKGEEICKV
Nature of the assay: Compound was evaluated for its antagonist affinity against LTD4 on human bronchial muscle. In kind it is functional, tissue-based. Conditions: Muscle tissue.

The target in assay [9] is T2, Cysteinyl leukotriene receptor 1 (Cavia porcellus). Nature of the assay: Compound was evaluated for its antagonist affinity at 1 uM on guinea-pig trachea rings against LTD4 receptor. In kind it is functional, tissue-based.
Assay [10] concerns Cavia porcellus. Nature of the assay: Compound was tested in vivo for antagonistic potency of LTD4 induced contractions of guinea-pig trachea after oral administration. Conditions: read-out: ID50 (the source's name). The assay is classed as functional.

Turning to `O=C(O)CCC[C@H](O)[C@@H](/C=C\CCCCCCCCCCCCCc1ccccc1)Sc1ccc(C(=O)O)cc1`, the inhibition constant Ki in assay [1] was 5010 nM. For the compound `CCCCC/C=C\C\C=C/C=C/C=C/[C@@H](Sc1cccc(C(=O)O)c1)[C@@H](O)CCCC(=O)O`, in [2], the pD2 was found to be 8.2. The compound also gave a Ki in assay [3] of 2 nM. As for `O=C(O)CCC[C@H](O)[C@@H](/C=C\CCc1ccccc1)Sc1ccc(C(=O)O)cc1`, the Ki in assay [1] was more than 100000 nM. In [4], `O=C(O)CCC[C@H](O)[C@@H](/C=C/c1cccc(OCCCCOc2ccccc2)c1)Sc1ccc(C(=O)O)cc1` displayed a pKB of 6.8. Take `O=C(O)CCC[C@H](O)[C@@H](/C=C\Cc1cccc(OCCCOc2ccccc2)c1)Sc1ccc(C(=O)O)cc1`: the pKB in assay [4] is less than 5. As for `O=C(O)CCC[C@H](O)[C@@H](/C=C\c1ccc(OCCCCOc2ccccc2)cc1)Sc1ccc(C(=O)O)cc1`, the negative-log KB (pKB) in assay [4] came out at 6.5. As to `O=C(O)CCC[C@H](O)[C@@H](/C=C\CCCCCCCCCOc1ccccc1)Sc1ccc(C(=O)O)cc1`, the affinity in [1] corresponds to a Ki of 316 nM. In turn, `O=C(O)CCC[C@H](O)[C@@H](/C=C/CCc1ccccc1)Sc1ccc(C(=O)O)cc1` gave a Ki in assay [1] of more than 100000 nM.

With `O=C(O)CCC(/C=C/Cc1ccc(OCCCCOc2ccccc2)cc1)Sc1ccc(C(=O)O)cc1` (single isomer, unassigned; (-)), the Kb in assay [5] is 100 nM. For `CCCCC/C=C\C\C=C/C=C/C=C/[C@@H](Sc1ccccc1C(=O)O)[C@@H](O)CCCC(=O)O`, the pD2 in [2] is listed as 6.9. Further, the inhibition constant (Ki) in [3] was 25.1 nM. In turn, `O=C(O)CCC[C@H](O)[C@@H](/C=C\c1cccc(OCCCCOc2ccccc2)c1)Sc1ccc(C(=O)O)cc1` yielded a pKB in assay [4] of less than 5. Take `O=C(O)CCC[C@H](O)[C@@H](/C=C\CCCCCc1ccccc1)Sc1ccc(C(=O)O)cc1`: in [1], the Ki is 20000 nM. This counts as double-digit micromolar. `O=C(O)CCC(/C=C\Cc1ccc(OCCCCOc2ccccc2)cc1)Sc1ccc(C(=O)O)cc1` (stereo unspecified): the ED50 in [6] stood at 2 mg/kg. Moreover, the results for the pKB in assay [7] and in assay [8] were 8.4 and 8, respectively. For the compound `O=C(O)CC(/C=C\Cc1ccc(OCCCCOc2ccccc2)cc1)Sc1ccc(C(=O)O)cc1` (stereo unspecified), the negative logarithm of the KB (pKB) in [9] was 6.9.

`O=C(O)CCC[C@H](O)[C@@H](/C=C\CCCCCCCCOc1ccccc1)Sc1ccc(C(=O)O)cc1`: in assay [1], affinity was put at a Ki of 631 nM. The compound `O=C(O)c1ccc(SC(/C=C\Cc2ccc(OCCCCOc3ccccc3)cc2)C(=O)O)cc1` (stereo unspecified) showed a pKB in assay [9] of 6.4.

In the case of `O=C(O)CCCC(/C=C\Cc1ccc(OCCCCOc2ccccc2)cc1)Sc1ccc(C(=O)O)cc1` (stereo unspecified), the pKB in assay [9] was 7. In assay [3], `CCCCC/C=C\C\C=C/C=C/C=C/[C@@H](Sc1ccc(C(=O)O)cc1)[C@@H](O)CCCC(=O)O` had a Ki of 100 nM. `O=C(O)CCCCC(/C=C\Cc1ccc(OCCCCOc2ccccc2)cc1)Sc1ccc(C(=O)O)cc1` (stereo unspecified): the negative-log KB (pKB) in assay [7] was 8.3; in assay [8], 6.8.

With `O=C(O)CCC[C@H](O)[C@@H](/C=C\CCCCCCCCc1ccccc1)Sc1ccc(C(=O)O)cc1`, the Ki in assay [1] is 316 nM. The same measure, in the same setting: under `O=C(O)CCC[C@H](O)[C@@H](/C=C\CCCCCCCCCc1ccccc1)Sc1ccc(C(=O)O)cc1` stands 251 nM.

With `O=C(O)CCC(/C=C/Cc1ccc(OCCCCOc2ccccc2)cc1)Sc1ccc(C(=O)O)cc1` (single isomer, unassigned; (+)), the Kb in assay [5] was 3.98 nM. As to `CCCCC/C=C\C\C=C/C=C/C=C/[C@@H](SC[C@H](N)C(=O)NCC(=O)O)[C@@H](O)CCCC(=O)O` [LEUKOTRIENE D4], the pD2 in [2] turned out to be 8.4. On to `O=C(O)CCC[C@H](O)[C@@H](/C=C/CCCc1ccccc1)Sc1ccc(C(=O)O)cc1`, for which the inhibitory constant (Ki) in assay [1] is more than 100000 nM. In assay [1], `O=C(O)CCC[C@H](O)[C@@H](/C=C\CCCCCCCCCCCc1ccccc1)Sc1ccc(C(=O)O)cc1` gave a Ki of 1260 nM. `O=C(O)CCC[C@H](O)[C@@H](/C=C\c1ccccc1OCCCCOc1ccccc1)Sc1ccc(C(=O)O)cc1`: in [4], the negative-log KB (pKB) was less than 5. `O=C(O)CCC[C@H](O)[C@@H](/C=C\Cc1ccccc1OCCCOc1ccccc1)Sc1ccc(C(=O)O)cc1` showed a pKB in assay [4] of less than 5. Turning to `O=C(O)CCC[C@H](O)[C@@H](/C=C\Cc1ccc(OCCCCOc2ccccc2)cc1)Sc1ccc(C(=O)O)cc1`, in assay [4], the pKB amounted to 8.3. Besides, in assay [10], the ED50 is approximately 3 mg/kg. In turn, `CCCCC/C=C\C\C=C/C=C/C=C/[C@@H](SCC(=O)O)[C@@H](O)CCCC(=O)O` displayed a pD2 in assay [2] of 8.5. In assay [3], this compound gave a Ki of 2 nM.
